Laboratory results reported in article doi:10.64898/2025.12.10.692519v1 (biorxiv, 2025).

Columns and labels:
[1] = system: CHRF; test: cells; set-up: species or system CMK; details: 72 h, read-out: AB8939 (IC50 nM)
[2] = biological target: ALDH2 (Homo sapiens, UniProt P05091); test: NADH fluorescence dehydrogenase assay; format: biochemical
[3] = system: MESSA; test: cells; set-up: species or system MES-SA/Mx2; details: Homo sapiens, MES-SA, read-out: MES-SA
[4] = system: REC-1; test: cells; details: Homo sapiens, Rec1, 144 h, read-out: AB8939
[5] = system: 786-O; test: cells; details: Homo sapiens, 786-0, 144 h, read-out: AB8939
[6] = system: U2OS; test: cells; details: Homo sapiens, U2OS, 144 h, read-out: AB8939
[7] = system: LnCaP; test: cells; details: Homo sapiens, LNCaP, 144 h, read-out: AB8939
[8] = system: Tov21G; test: cells; details: Homo sapiens, TOV21G, 144 h, read-out: AB8939
[9] = system: A-549; test: cells; details: Homo sapiens, A549, 144 h, read-out: AB8939
[10] = system: MOLM-14; test: cells; details: Homo sapiens, MOLM-14, 144 h, read-out: AB8939
[11] = system: HGC-27; test: cells; details: Homo sapiens, HGC-27, 144 h, read-out: AB8939
[12] = system: CCRF-CEM; test: cells; details: Homo sapiens, CCRF-CEM, 144 h, read-out: AB8939
[13] = system: HRT-18; test: cells; details: Homo sapiens, HRT-18, 144 h, read-out: AB8939
[14] = system: CMK; test: cells; set-up: species or system CHRF; details: Homo sapiens, 72 h, read-out: AB8939 (IC50 nM)
[15] = biological target: ALDH1A1 (Homo sapiens, UniProt P00352); test: NADH fluorescence dehydrogenase assay; format: biochemical
Chain of ALDH1A1 (P00352 2-501): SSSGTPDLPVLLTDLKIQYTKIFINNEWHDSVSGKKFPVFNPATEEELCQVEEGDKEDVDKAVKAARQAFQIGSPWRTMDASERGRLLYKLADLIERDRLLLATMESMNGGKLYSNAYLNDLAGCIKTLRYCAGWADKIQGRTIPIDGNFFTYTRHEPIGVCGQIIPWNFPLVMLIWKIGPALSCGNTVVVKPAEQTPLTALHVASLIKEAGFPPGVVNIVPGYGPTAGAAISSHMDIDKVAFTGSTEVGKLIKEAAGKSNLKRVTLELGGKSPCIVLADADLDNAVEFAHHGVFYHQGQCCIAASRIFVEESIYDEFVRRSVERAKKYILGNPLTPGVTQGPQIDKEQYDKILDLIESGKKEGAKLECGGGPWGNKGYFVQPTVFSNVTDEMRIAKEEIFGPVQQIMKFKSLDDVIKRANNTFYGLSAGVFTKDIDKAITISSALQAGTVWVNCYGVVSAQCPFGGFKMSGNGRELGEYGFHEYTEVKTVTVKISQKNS

[16] = system: TG-LAM-143-P0; test: cells; set-up: species or system primary AML patient blasts; details: 48 h, read-out: IC50 (µM) / AB8939
[17] = system: TG-LAM-141-P0; test: cells; set-up: species or system primary AML patient blasts; details: 48 h, read-out: IC50 (µM) / AB8939
[18] = system: TG-LAM-139-P0; test: cells; set-up: species or system primary AML patient blasts; details: 48 h, read-out: IC50 (µM) / AB8939
[19] = system: TG-LAM-77-P0; test: cells; set-up: species or system primary AML patient blasts; details: 48 h, read-out: IC50 (µM) / AB8939
[20] = system: TG-LAM-140-P0; test: cells; set-up: species or system primary AML patient blasts; details: 48 h, read-out: IC50 (µM) / AB8939
[21] = system: TG-LAM-145-P0; test: cells; set-up: species or system primary AML patient blasts; details: 48 h, read-out: IC50 (µM) / AB8939
[22] = system: TG-LAM-135-P0; test: cells; set-up: species or system primary AML patient blasts; details: 48 h, read-out: IC50 (µM) / AB8939
[23] = system: TG-LAM-136-P0; test: cells; set-up: species or system primary AML patient blasts; details: 48 h, read-out: IC50 (µM) / AB8939
[24] = system: TG-LAM-75-P3; test: cells; set-up: species or system primary AML patient blasts; details: 48 h, read-out: IC50 (µM) / AB8939
[25] = system: TG-LAM-138-P0; test: cells; set-up: species or system primary AML patient blasts; details: 48 h, read-out: IC50 (µM) / AB8939
[26] = system: TG-LAM-144-P0; test: cells; set-up: species or system primary AML patient blasts; details: 48 h, read-out: IC50 (µM) / AB8939
[27] = system: TG-LAM-142-P0; test: cells; set-up: species or system primary AML patient blasts; details: 48 h, read-out: IC50 (µM) / AB8939
[28] = system: TG-LAM-76-P3; test: cells; set-up: species or system primary AML patient blasts; details: 48 h, read-out: IC50 (µM) / AB8939
[29] = system: TG-LAM-134-P0; test: cells; set-up: species or system primary AML patient blasts; details: 48 h, read-out: IC50 (µM) / AB8939

Chain of ALDH2 (P05091 17-517): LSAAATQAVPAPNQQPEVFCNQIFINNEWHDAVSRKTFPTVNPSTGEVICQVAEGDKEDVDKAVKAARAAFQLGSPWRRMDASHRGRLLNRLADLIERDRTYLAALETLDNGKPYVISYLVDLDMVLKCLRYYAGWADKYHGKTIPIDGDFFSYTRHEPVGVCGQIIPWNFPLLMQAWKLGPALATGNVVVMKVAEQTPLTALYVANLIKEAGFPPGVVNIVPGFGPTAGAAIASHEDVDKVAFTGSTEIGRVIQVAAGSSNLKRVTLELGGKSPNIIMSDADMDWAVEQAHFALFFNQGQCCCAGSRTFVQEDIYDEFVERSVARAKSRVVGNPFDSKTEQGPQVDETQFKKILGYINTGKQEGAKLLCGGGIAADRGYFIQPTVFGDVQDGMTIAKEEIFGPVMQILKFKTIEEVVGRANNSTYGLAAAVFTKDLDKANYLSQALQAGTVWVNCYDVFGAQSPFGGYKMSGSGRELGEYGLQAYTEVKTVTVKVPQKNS

Work on `CCOCc1ccc(C)c(Nc2ncc(-c3ccc(N4CCNC4=O)cc3)o2)c1` [AB8939] yielded an IC50 [1] of 9.7 nM, an IC50 [2] of 0.34 µM and an IC50 [3] of 0.0057 ± 0.005 µM. The IC50 [4] was 0.004 µM, the IC50 [5] was 0.087 µM and the IC50 [6] was 0.001 µM. The IC50 [7] was 0.005 µM, the IC50 [8] was 0.008 µM and the IC50 [9] was 0.001 µM. It also gave an IC50 [10] of 0.014 µM, an IC50 [11] of 0.001 µM and an IC50 [12] of 0.001 µM. It also gave an IC50 [13] of 0.001 µM, an IC50 [14] of 5.68 nM and an IC50 [15] of 0.61 µM. For the same molecule, the IC50 [16] was 0.36 µM, the IC50 [17] was 0.12 µM and the IC50 [18] was 0.94 µM. The IC50 [19] was over 5 µM, the IC50 [20] was 0.06 µM and the IC50 [21] was 1.8 µM. The IC50 [22] was over 5 µM, the IC50 [23] was 0.04 µM and the IC50 [24] was 0.05 µM. The IC50 [25] was over 5 µM, the IC50 [26] was 0.38 µM and the IC50 [27] was over 5 µM. For the same molecule, the IC50 [28] was 0.013 µM and the IC50 [29] was 0.08 µM.
